Where two headings read alike, the source gives them in different places.
Experiments:
[1] = tested on: primary human total T-cells; test: T-cell activation, CD25 surface staining, Biological Example 2; type: cell-based; conditions: 48 hours, fold change over baseline; for fold induction at 0.3 µM: 0.3 μM inhibitor; for fold induction at 1 µM: 1 μM inhibitor; for fold induction at 3 µM: 3 μM inhibitor
[2] = tested on: primary human total T-cells; test: T-cell activation, IL-2 secretion, Biological Example 2; type: cell-based; conditions: 48 hours, fold change over baseline; for fold induction at 0.3 µM: 0.3 μM inhibitor; for fold induction at 1 µM: 1 μM inhibitor; for fold induction at 3 µM: 3 μM inhibitor
Cbl-b = Cbl-b (Homo sapiens (Human), UniProt Q13191); test: Cbl-b displacement assay (Cbl-b inhibition assay), Biological Example 1; type: binding
Outline: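 Probe displacement read as TR-FRET (520/620 nm) after 1 h with 2 nM streptavidin-terbium and 150 nM BODIPY FL-labelled inhibitor probe, about EC40. Before that, compound in 1% DMSO sat 1 h at room temperature with N-Avitag biotinylated Cbl-b 36–427, 0.5 nM (High) or 0.125 nM (Low), in pH 7.5 HEPES buffer.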

[3] = anti-CD3 and anti-CD28 co-stimulation
[4] = anti-CD3 and anti-CD28 co-stimulation, read-out: CD25 staining CD3/CD28 1 μM
[5] = anti-CD3 stimulation alone, read-out: CD25 staining CD3 1 μM
[6] = anti-CD3 and anti-CD28 co-stimulation, read-out: IL-2 secretion CD3/CD28 1 μM
[7] = anti-CD3 stimulation alone, read-out: IL-2 secretion CD3 1 μM
[8] = 0.125 nM Cbl-b final concentration (Low), read-out: Cbl-b activity IC50 (Low)
[9] = read-out: IC50 values in the Cbl-b inhibition assay of Biological Example 1

Cbl-b, sequence (Q13191 36-427): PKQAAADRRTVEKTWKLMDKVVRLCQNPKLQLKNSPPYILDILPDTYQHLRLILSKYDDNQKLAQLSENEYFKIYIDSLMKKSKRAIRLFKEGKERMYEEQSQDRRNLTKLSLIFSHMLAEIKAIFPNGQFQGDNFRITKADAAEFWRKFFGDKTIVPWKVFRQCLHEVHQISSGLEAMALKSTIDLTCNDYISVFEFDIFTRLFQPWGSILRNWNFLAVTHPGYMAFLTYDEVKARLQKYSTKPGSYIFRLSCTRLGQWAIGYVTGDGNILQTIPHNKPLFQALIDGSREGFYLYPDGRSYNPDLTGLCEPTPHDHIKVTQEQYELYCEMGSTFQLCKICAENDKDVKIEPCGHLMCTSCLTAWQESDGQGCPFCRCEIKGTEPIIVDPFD

| Structure (SMILES) | fold induction at 0.3 µM [1, 3] | fold induction at 1 µM [1, 4] | fold induction at 1 µM [1, 5] | fold induction at 3 µM ([1]; anti-CD3 stimulation alone) | fold induction at 0.3 µM [2, 3] | fold induction at 1 µM [2, 6] | fold induction at 1 µM [2, 7] | fold induction at 3 µM ([2]; anti-CD3 stimulation alone) | IC50 (Cbl-b; [8]) [nM] | IC50 (Cbl-b; [9]) [nM] |
| --- | --- | --- | --- | --- | --- | --- | --- | --- | --- | --- |
| Cn1cnnc1C[C@]1(c2cccc(N3Cc4c(cc(CN5CCC6CCC(C5)O6)cc4C(F)(F)F)C3=O)c2)C[C@H](C#N)C1 (some centres unmarked) [Compound 37, (1r,3r)-3-(3-(6-((9-oxa-3-azabicyclo[4.2.1]nonan-3-yl)methyl)-1-oxo-4-(trifluoromethyl)isoindolin-2-yl)phenyl)-3-((4-methyl-4H-1,2,4-triazol-3-yl)methyl)cyclobutane-1-carbonitrile] | 1.24 to 1.39 | 1.24 to 1.39 | 1 to 1.15 | ≤ 1 | ≤ 15 | 15 to 20 | < 0.4 | 0.4 to 0.85 | 2 to 5 | – |
| Cn1cnnc1C[C@]1(c2cccc(N3Cc4c(cc(CN5CC6COC(C6)C5)cc4C(F)(F)F)C3=O)c2)C[C@H](C#N)C1 (some centres unmarked) [Compound 38, (1r,3r)-3-(3-(6-((6-oxa-3-azabicyclo[3.2.1]octan-3-yl)methyl)-1-oxo-4-(trifluoromethyl)isoindolin-2-yl)phenyl)-3-((4-methyl-4H-1,2,4-triazol-3-yl)methyl)cyclobutane-1-carbonitrile] | > 1.39 | > 1.39 | > 1.15 | > 1.15 | ≤ 15 | 15 to 20 | 0.4 to 0.85 | > 0.85 | 5 to 20 | 5 to 20 |
| Cn1cnnc1C[C@]1(c2cccc(N3Cc4c(cc(CNC5CCC(F)(F)C5)nc4C4CC4)C3=O)c2)C[C@H](C#N)C1 (some centres unmarked) [Compound 39, (1r,3r)-3-(3-(4-cyclopropyl-6-(((3,3-difluorocyclopentyl)amino)methyl)-1-oxo-1,3-dihydro-2H-pyrrolo[3,4-c]pyridin-2-yl)phenyl)-3-((4-methyl-4H-1,2,4-triazol-3-yl)methyl)cyclobutane-1-carbonitrile] | 1.24 to 1.39 | ≤ 1.24 | ≤ 1 | ≤ 1 | ≤ 15 | ≤ 15 | < 0.4 | < 0.4 | 1 to 2 | 1 to 2 |
| C[C@H]1CCCN(Cc2cc3c(c(C4CC4)n2)CN(c2cccc([C@]4(Cc5nncn5C)C[C@@H](C#N)C4)c2)C3=O)C1 [Compound 40, (1r,3r)-3-(3-(4-cyclopropyl-6-(((S)-3-methylpiperidin-1-yl)methyl)-1-oxo-1,3-dihydro-2H-pyrrolo[3,4-c]pyridin-2-yl)phenyl)-3-((4-methyl-4H-1,2,4-triazol-3-yl)methyl)cyclobutane-1-carbonitrile] | 1.24 to 1.39 | 1.24 to 1.39 | 1 to 1.15 | ≤ 1 | ≤ 15 | 15 to 20 | 0.4 to 0.85 | > 0.85 | 1 to 2 | 1 to 2 |
| Cn1cnnc1C[C@]1(c2cccc(N3Cc4c(cc(CN5CCCOC(CO)C5)cc4C(F)(F)F)C3=O)c2)C[C@H](C#N)C1 (some centres unmarked) [Compound 41, (1r,3r)-3-(3-(6-((2-(hydroxymethyl)-1,4-oxazepan-4-yl)methyl)-1-oxo-4-(trifluoromethyl)isoindolin-2-yl)phenyl)-3-((4-methyl-4H-1,2,4-triazol-3-yl)methyl)cyclobutane-1-carbonitrile] | 1.24 to 1.39 | > 1.39 | ≤ 1 | 1 to 1.15 | ≤ 15 | ≤ 15 | < 0.4 | < 0.4 | 2 to 5 | – |
| C[C@@H]1CN(Cc2cc3c(c(C4CC4)n2)CN(c2cccc([C@]4(Cc5nncn5C)C[C@@H](C#N)C4)c2)C3=O)CCC1(F)F [Compound 42, (1R,3r)-3-(3-(4-cyclopropyl-6-(((R)-4,4-difluoro-3-methylpiperidin-1-yl)methyl)-1-oxo-1,3-dihydro-2H-pyrrolo[3,4-c]pyridin-2-yl)phenyl)-3-((4-methyl-4H-1,2,4-triazol-3-yl)methyl)cyclobutane-1-carbonitrile] | ≤ 1.24 | ≤ 1.24 | 1 to 1.15 | 1 to 1.15 | 15 to 20 | > 20 | > 0.85 | > 0.85 | 2 to 5 | – |
| CCC1COCCN(Cc2cc3c(c(C(F)(F)F)c2)CN(c2cccc([C@]4(Cc5nncn5C)C[C@@H](C#N)C4)c2)C3=O)C1 (some centres unmarked) [Compound 43, (1r,3r)-3-(3-(6-((6-ethyl-1,4-oxazepan-4-yl)methyl)-1-oxo-4-(trifluoromethyl)isoindolin-2-yl)phenyl)-3-((4-methyl-4H-1,2,4-triazol-3-yl)methyl)cyclobutane-1-carbonitrile] | ≤ 1.24 | ≤ 1.24 | 1 to 1.15 | 1 to 1.15 | ≤ 15 | > 20 | 0.4 to 0.85 | 0.4 to 0.85 | 2 to 5 | – |
| Cn1cnnc1C[C@]1(c2cccc(N3Cc4c(cc(CN5CCOCC(CO)C5)cc4C(F)(F)F)C3=O)c2)C[C@H](C#N)C1 (some centres unmarked) [Compound 44, (1r,3r)-3-(3-(6-((6-(hydroxymethyl)-1,4-oxazepan-4-yl)methyl)-1-oxo-4-(trifluoromethyl)isoindolin-2-yl)phenyl)-3-((4-methyl-4H-1,2,4-triazol-3-yl)methyl)cyclobutane-1-carbonitrile] | ≤ 1.24 | ≤ 1.24 | ≤ 1 | 1 to 1.15 | ≤ 15 | ≤ 15 | < 0.4 | < 0.4 | 1 to 2 | 1 to 2 |
| COCC1CCCCN(Cc2cc3c(c(C(F)(F)F)c2)CN(c2cccc([C@]4(Cc5nncn5C)C[C@@H](C#N)C4)c2)C3=O)C1 (some centres unmarked) [Compound 45, (1r,3r)-3-(3-(6-((3-(methoxymethyl)azepan-1-yl)methyl)-1-oxo-4-(trifluoromethyl)isoindolin-2-yl)phenyl)-3-((4-methyl-4H-1,2,4-triazol-3-yl)methyl)cyclobutane-1-carbonitrile] | 1.24 to 1.39 | 1.24 to 1.39 | 1 to 1.15 | 1 to 1.15 | ≤ 15 | > 20 | 0.4 to 0.85 | > 0.85 | 2 to 5 | 2 to 5 |
| COCC1COCCN(Cc2cc3c(c(C(F)(F)F)c2)CN(c2cccc([C@]4(Cc5nncn5C)C[C@@H](C#N)C4)c2)C3=O)C1 (some centres unmarked) [Compound 46, (1r,3r)-3-(3-(6-((6-(methoxymethyl)-1,4-oxazepan-4-yl)methyl)-1-oxo-4-(trifluoromethyl)isoindolin-2-yl)phenyl)-3-((4-methyl-4H-1,2,4-triazol-3-yl)methyl)cyclobutane-1-carbonitrile] | > 1.39 | > 1.39 | > 1.15 | > 1.15 | ≤ 15 | 15 to 20 | 0.4 to 0.85 | > 0.85 | 5 to 20 | 5 to 20 |
| Cn1cnnc1C[C@]1(c2cccc(N3Cc4c(cc(CN5CC6CCC(F)(F)C6C5)cc4C(F)(F)F)C3=O)c2)C[C@H](C#N)C1 (some centres unmarked) [Compound 47, (1r,3r)-3-(3-(6-((4,4-difluorohexahydrocyclopenta[c]pyrrol-2(1H)-yl)methyl)-1-oxo-4-(trifluoromethyl)isoindolin-2-yl)phenyl)-3-((4-methyl-4H-1,2,4-triazol-3-yl)methyl)cyclobutane-1-carbonitrile] | > 1.39 | > 1.39 | > 1.15 | > 1.15 | > 20 | > 20 | > 0.85 | > 0.85 | 2 to 5 | 2 to 5 |
| Cn1cnnc1C[C@]1(c2cccc(N3Cc4c(cc(CN5CCCCC(CO)C5)cc4C(F)(F)F)C3=O)c2)C[C@H](C#N)C1 (some centres unmarked) [Compound 48, (1r,3r)-3-(3-(6-((3-(hydroxymethyl)azepan-1-yl)methyl)-1-oxo-4-(trifluoromethyl)isoindolin-2-yl)phenyl)-3-((4-methyl-4H-1,2,4-triazol-3-yl)methyl)cyclobutane-1-carbonitrile] | > 1.39 | > 1.39 | > 1.15 | > 1.15 | ≤ 15 | > 20 | 0.4 to 0.85 | 0.4 to 0.85 | 1 to 2 | 1 to 2 |

Reference: US11530229B2, “Cyano cyclobutyl compounds for CBL-B inhibition and uses thereof” (Nurix Therapeutics, Inc., priority 2019, dated 2022)
